Experimental data from US8633335B2, “Retinoid prodrug compound” (Research Founation Itsuu Laboratory, priority 2007, dated 2014).

First: C[C@H](OC(=O)c1ccc(C(=O)Nc2cc([Si](C)(C)C)cc([Si](C)(C)C)c2)cc1)C(=O)O
Second: CC1(C)CCC(C)(C)c2cc(NC(=O)c3ccc(/C=C/C(=O)O)cc3)ccc21 [Example 24, 4-[(5,6,7,8-Tetrahydro-5,5,8,8-tetramethyl-2-naphthyl)carbamoyl]cinnamic acid]
The melting point of the first is lower: 198 to 200 °C for the first, 226 to 227 °C for the second.

Work on `CC1(C)CCC(C)(C)c2cc(NC(=O)c3ccc(C=O)cc3)ccc21` [Example 23, 4-Formyl-N-(5,6,7,8-tetrahydro-5,5,8,8-tetramethyl-2-naphthyl)benzamide] yielded a melting point of 185.5 to 186.5 °C.
